{
  "source": "patent US20080025960A1",
  "about": "“Detergents with stabilized enzyme systems” (priority 2006, published 2008)",
  "biological_target": "T1, choline oxidase (Arthrobacter globiformis, UniProt Q7X2H8)",
  "T1 sequence (Q7X2H8 1-546)": "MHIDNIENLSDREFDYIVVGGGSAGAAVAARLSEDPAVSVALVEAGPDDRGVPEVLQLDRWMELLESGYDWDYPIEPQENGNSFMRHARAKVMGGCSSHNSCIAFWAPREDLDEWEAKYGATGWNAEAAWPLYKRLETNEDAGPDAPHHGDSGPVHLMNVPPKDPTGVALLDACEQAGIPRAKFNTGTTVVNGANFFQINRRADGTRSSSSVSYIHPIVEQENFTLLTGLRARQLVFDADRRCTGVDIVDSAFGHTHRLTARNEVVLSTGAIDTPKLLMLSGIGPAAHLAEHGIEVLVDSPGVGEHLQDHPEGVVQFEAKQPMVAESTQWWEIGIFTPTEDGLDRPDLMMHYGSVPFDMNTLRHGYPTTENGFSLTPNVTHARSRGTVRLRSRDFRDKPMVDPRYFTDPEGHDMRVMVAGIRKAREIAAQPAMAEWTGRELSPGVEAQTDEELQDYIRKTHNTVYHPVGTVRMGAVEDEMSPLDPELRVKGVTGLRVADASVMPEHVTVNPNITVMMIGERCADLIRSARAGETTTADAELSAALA",
  "assay": "H2O2 in wash liquor with choline oxidase, choline chloride and inhibitor",
  "assay_type": "biochemical",
  "details": "2 mM choline chloride, 0.02U choline oxidase, 0.2 mM sodium bisulfite inhibitor (pH7)",
  "experimental": "The experiments were conducted as described in Example 1. Choline oxidase produces two moles of H2O2 per mole of choline. The results obtained in these experiments confirmed that choline oxidase was stable in AATCC detergent over 24 hour period tested in presence of choline and inhibitors. […] Upon dilution in wash liquor, detergent containing choline oxidase, choline chloride and an inhibitor (e.g., sodium hydrogen sulfite or 2-amino,2-methyl,1-propanol) produced H2O2 over time, as indicated in Table 5.",
  "data": [
    {"molecule": "O=S([O-])O.[Na+]", "note": "[bisulfite, sodium hydrogen sulfite]", "values": [
      {"measurement": "H2O2 PPM", "setting": "AATCC Detergent, T = 0+", "result": 1, "unit": "PPM"},
      {"measurement": "H2O2 PPM", "setting": "AATCC Detergent, T = 12 min", "result": 10, "unit": "PPM"},
      {"measurement": "H2O2 PPM", "setting": "AATCC Detergent, T = 30 min", "result": "> 10", "unit": "PPM"},
      {"measurement": "H2O2 PPM", "setting": "AATCC Detergent, T = 60 min", "result": 30, "unit": "PPM"},
      {"measurement": "H2O2 PPM", "setting": "Control Buffer, T = 0+", "result": 1, "unit": "PPM"},
      {"measurement": "H2O2 PPM", "setting": "Control Buffer, T = 12 min", "result": 10, "unit": "PPM"},
      {"measurement": "H2O2 PPM", "setting": "Control Buffer, T = 30 min", "result": "> 10", "unit": "PPM"},
      {"measurement": "H2O2 PPM", "setting": "Control Buffer, T = 60 min", "result": 30, "unit": "PPM"}
    ]}
  ]
}
